Consider 2 compounds from patent US11560358B2, “Resveratrol-piperazine co-crystals” (LETAVIS AB, priority 2018, dated 2023).

Converted amounts (≈) assume the structure as drawn.

A short description of this series: physchem. How it is done: In situ dissolution experiments were performed with a μDISS Profiler apparatus (pION Inc., MA, USA). The system consists of an integrated diode array spectrophotometer connected to a fiber optic UV probe located directly in the reaction vessel (20 ml scintillation vial) and measures the concentration as a function of time, without filtering the solution. Measurement of the dissolution kinetics was carried out at 220 nm and 270 nm, which are optimal for the UV detection of resveratrol and […], respectively. The concentrations of the compounds in the dissolution media (water, buffer pH=4, pH=6) were calculated by means of a standard curve.
The calibration curve was obtained in a mixture of ethanol and water at 8/2 (vol/vol). Stock solutions of resveratrol and resveratrol-piperazine co-crystal, Form 1, respectively, were prepared at 10 mg/ml. The calibration was performed in a 20 ml volume.
The dissolution was performed in 25 mM phosphate buffer (Na2HPO4/KH2PO4) at pH 6, at a concentration of 1 mg/ml resveratrol and resveratrol-piperazine co-crystal, Form 1, respectively. An amount of 20 mg of each compound was dispensed in 20 ml volume of buffer. The process was monitored for 90 minutes.
The calibration was performed in a mixture of ethanol and sodium acetate buffer pH 4.0 at 8/2 (vol/vol) and final concentration of 25 mM sodium acetate. Stock solutions of resveratrol and resveratrol-piperazine co-crystal, Form 1, respectively, were prepared at 10 mg/ml in the solvent mixture. The calibration was performed in 20 ml volume.
The dissolution was performed in 25 mM sodium acetate buffer at pH 4.0, at a concentration of 1 mg/ml resveratrol and resveratrol-piperazine co-crystal, Form 1 (RP1), respectively. An amount of 20 mg compound was dispensed in 20 ml volume of buffer. The process was monitored for 90 minutes.

On to `C1CNCCN1.Oc1ccc(C=Cc2cc(O)cc(O)c2)cc1` [resveratrol-piperazine co-crystal, Form 1], for which the aqueous solubility is listed as 65-100 micrograms/ml. The “time maintained in solution, pH 4 buffer versus pH 6 buffer” value (FIG. 14 and FIG. 13) is “longer than in the case of the pH 6 buffer”. Further, the “solubility compared to that of resveratrol” value (pH 4) is listed as “three times higher”.

For orientation: solubility means the concentration that dissolves in the medium under given conditions. A low value points to a poorly soluble substance. Turning to `Oc1ccc(C=Cc2cc(O)cc(O)c2)cc1` [resveratrol], the concentration in solution (aqueous buffer, thermodynamic from solid) (solubility at 90 min) was 30 µg/mL (≈ 131 µM).
